The subject of series [1] is Tumor Cells. Description: AlamarBlue cell proliferation (cytotoxicity) assay, mean over tumor cells. It counts as cell-based. To be noted: for mean IC30 over tumor cell lines: alamarBlue, mean of the MCF7TDX, H630R10 and HT1080 (µM); for activity (in words, summary of Tables 5 and 6): text comment on the cytotoxicity data. As for the experimental part: (§1) Cells growing exponentially were transferred to 384-well flat bottom tissue culture plates. […] After 24 hours (day 0), 25 µL of complete medium containing the compounds over the dose range of 10^-3 to 10^-10 M were added in triplicate. Drug exposure time was 120 hours (day 5), after which growth inhibition was assayed. 5 µL of the redox indicator, alamarBlue, was added to each well (10% v/v).
(§2) Numbering in Tables 5 and 6 refer to the structures, shown infra. […] MCF7-TDX was derived from MCF7 breast tumor cells via selection in cell culture in the presence of Tomudex, a direct inhibitor of TS. […] Similarly, H630R10 is a 5FU (fluoropyrimidine) resistant colon cancer epithelial cell line derived from H630 colon cancer cells. […] HT1080, #12, is a fibrosarcoma tumor cell line that expresses high levels ofTS via a transgene introduced into HT1080 tumor cells. Normal cell lines used in these assays include CCD180co (normal colon epithelium) and Det551 (normal skin).
(In general: Resazurin is reduced to fluorescent resorufin, in cell work by metabolically active cells.)

Series [2] relates to H630R10 (5-FU resistant colon cancer cell line). Kind of series: Amount of nucleoside and monophosphate in cells (HPLC of lysates after BVdU treatment). The following applies: 2 days treatment with 100 µm BVdU.
Method: (§5) 100 µM of BVdU was added to each dish and the cells continued to grow for 2 days at 37°C. After that, the medium was aspirated and the cells were washed twice with phosphate buffered saline (PBS). Then 1 ml of PBS per dish was added and the dishes were placed in a -80°C freezer. The cells were disrupted via freezing/thawing procedure, repeated twice. The cell debris in the resulting suspension were spun down (13,000 rpm,10 minutes) and the supernatant was deproteinized by passing though a Centrifugal Filter Device (Centrifree, 30,000 cut-off, Amicon) by centrifugation at 5,000 rpm for 30 minutes on Sorvall Super T21 centrifuge (Rotor SL-50-T, 1,912 g) at 20°C. The pass-through was concentrated to the volume of 100 µl, and injected onto an HPLC column (Adsorbosphere HS, C18, 5 µm, 4.6 mm x 150 mm, Alltech). The samples were analyzed using acetonitrile gradient in water containing trifluoroacetic acid. The peaks were detected at 300 mm the maximum of absorption of BVdU-derivatives, and the amounts of compounds were expressed as peak area at 300 nm. […]
(§6) The amounts of reference compounds BVdUMP or BVdU present in lysates call lines MCF7, MCF7TDX, and H630R10 each treated with BVdU, are expressed as an area of a corresponding HPLC peak at 300 nm. […]
(§7) Cells were incubated in complete media with 100 µm BVdU. Lysates were prepared and BVdUMP and BVdU levels were determined.
In a further series the test system is HT1080. Description: AlamarBlue cell proliferation (cytotoxicity) assay. It counts as cell-based. To be noted: dose range 10^-3 to 10^-10 M. As for the experimental part: as §1, §2
In another series the test system is HT1080 # 12. Kind of series: Crystal violet cell proliferation inhibition assay. The series is classed as cell-based. To be noted: high TS via transgene. As for the experimental part: (§3) Compound concentrations from 1 µM to 3000 µM were tested.
as §2
(§4) Table 7. Cytotoxic Activity of NB1024 Isomers

For series [3], the system named is CCd18co. Kind of series: Crystal violet cell proliferation inhibition assay. It counts as cell-based. To be noted: Homo sapiens, CCD-18Co, 72 hours incubation, normal colon epithelium cells. As for the experimental part:
as §3, §2, §4

In series [4] the test system is Det551. Description: Crystal violet cell proliferation inhibition assay. The series is classed as cell-based. The following applies: Homo sapiens, 72 hours incubation, normal skin cells. As for the experimental part:
as §3, §2, §4

Series [5] relates to H630R10. Description: Crystal violet cell proliferation inhibition assay. It counts as cell-based, human. To be noted: 72 hours incubation. As for the experimental part: as §3, §2
For series [6], the system named is Tumor Cells. Kind of series: Crystal violet cell proliferation inhibition assay, mean over tumor cells. It counts as cell-based. As for the experimental part:
as §3, §2

Series [7] relates to Normal Cells. Kind of series: Crystal violet cell proliferation inhibition assay, mean over normal cells. The series is classed as cell-based, human. The following applies: mean of the CCD18co and Det551 columns. As for the experimental part: as §3, §2
In series [8] the test system is CCd18co. Kind of series: AlamarBlue cell proliferation (cytotoxicity) assay. It counts as cell-based, human. The following applies: 120 hours drug exposure, normal colon epithelium cells. As for the experimental part: as §1, §2
For series [9], the system named is H630R10. Kind of series: AlamarBlue cell proliferation (cytotoxicity) assay. It counts as cell-based, human. The following applies: 120 hours drug exposure, dose range 10^-3 to 10^-10 M. As for the experimental part: as §1, §2
The test system of a further series is MCF7TDX. Description: AlamarBlue cell proliferation (cytotoxicity) assay. The series is classed as cell-based, human. To be noted: 120 hours drug exposure, dose range 10^-3 to 10^-10 M. As for the experimental part: as §1, §2
Series [10] relates to Normal Cells. Kind of series: AlamarBlue cell proliferation (cytotoxicity) assay, mean over normal cells. The series is classed as cell-based, human. To be noted: mean of CCd18co and Det551 (µM). As for the experimental part: as §1, §2
Series [11] relates to Det551. Description: AlamarBlue cell proliferation (cytotoxicity) assay. It counts as cell-based, human. The following applies: 120 hours drug exposure, normal skin cells. As for the experimental part:
as §1, §2

Series [12] deals with MCF7TDX (Tomudex resistant breast cancer cell line).
Method: as §5, §6, §7
The test system of series [13] is H630R10 (5-FU resistant colon cancer cell line).
Method: as §5, §6, §7
Series [14] relates to MCF7 (breast cancer cell line).
Method: as §5, §6, §7
Setting [15] is: Homo sapiens, HT-1080, 120 hours drug exposure.

Where only a bound is given, the exact number is not on record here.

A word on the IC30: it is the point of the concentration-response curve where the effect stands at 30%. Read a high IC30 as weaker potency. What is called IC50 is the midpoint of a concentration-inhibition curve. High values mean a need for much substance, low ones inhibition by little substance. Take `O=c1[nH]c(=O)n([C@H]2C[C@H](O)[C@@H](CO)O2)cc1/C=C/Br` [BVdU, (E)-5-(2-Bromovinyl)-2'-deoxyuridine, reference compound]: in the series with Tumor Cells [1] (Homo sapiens, HT-1080), the mean IC30 over tumor cell lines came out at 307 µM. The “BvdUMP/(BVdUMP + BVdU) x100” value in series [2] is on record as less than 4. Also, the IC30 is 719 µM in the series on HT1080 (setting [15]), 201 µM with H630R10 [9] (Homo sapiens) and 0.02 µM in the series with MCF7TDX (Homo sapiens). Further, the IC50 in the series with HT1080 # 12 (Homo sapiens, HT-1080, 72 hours incubation) turned out to be 7 µM; in the series on CCd18co [3] it was 1000 µM; in the series on Det551 [4], 625 µM; in the series with H630R10 [5] (Homo sapiens), 405 µM; in the series with Tumor Cells [6] (Homo sapiens, HT-1080, mean of the H630R10 and HT1080 # 12 columns (uM)), 206 µM; in the series with Normal Cells [7] (Homo sapiens, CCD-18Co) it was 812 µM. The IC50 in the series with CCd18co [8] (Homo sapiens, CCD-18Co) turned out to be 1000 µM; in the series with Normal Cells [10] (Homo sapiens, CCD-18Co), 1000 µM.

In the series on Tumor Cells [1], “5-(2-Bromovinyl)-2'-Deoxyuridine Phenyl N-Methoxy-L-alaninyl Phosphoramidate [NB1011]” gave a mean IC30 over tumor cell lines of 88.7 µM. Further, the IC30 was found to be 182 µM with HT1080 (120 hours drug exposure), 82 µM with H630R10 [9] and 2 µM in the series on MCF7TDX. The 50% inhibitory concentration (IC50) in the series on HT1080 # 12 (72 hours incubation) turned out to be 1.2 µM; with H630R10 [5] it was 130 µM; with Tumor Cells [6] (mean of the H630R10 and HT1080 # 12 columns (uM)) it was 65.6 µM; in the series with Normal Cells [7], 382 µM; in the series with CCd18co [8] it was 414 µM; in the series on Det551 [11] it was 398 µM. In the series with Normal Cells [10], the IC50 is 406 µM.

With `O=c1ccn(C2CC(O)C(CO)O2)c(=O)[nH]1` (centres unmarked) [NB1026], the “activity (in words, summary of Tables 5 and 6)” value in the series on Tumor Cells [1] is “little detectable activity”. Besides, the IC30 in the series with HT1080 (120 hours drug exposure), with H630R10 [9] and in the series on MCF7TDX was 1000 µM in each case.

For the compound `COC(=O)C(C)NP(=O)(OCC1OC(n2cc(C(F)(F)F)c(=O)[nH]c2=O)CC1O)Oc1ccccc1` (centres unmarked) [NB1014], the mean IC30 over tumor cell lines in the series on Tumor Cells [1] came to 342 µM. In addition, the values for the IC50 in the series on Det551 [11] and with Normal Cells [10] were 239 µM and 139 µM, respectively. Moreover, the IC30 stood at 287 µM in the series on H630R10 [9] and 396 µM in the series with MCF7TDX.

With `O=c1[nH]c(=O)n([C@H]2C[C@H](O)[C@@H](COP(=O)(O)O)O2)cc1/C=C/Br` [BVdUMP], the “amount present in cell lysate, expressed as area of the HPLC peak at 300 nm” value in series [12] is on record as 10.9; in series [13], less than 1; in series [14], 63.7.

`COC(=O)[C@H](C)NP(=O)(OC[C@H]1O[C@@H](n2cc(/C=C/Cl)c(=O)[nH]c2=O)C[C@@H]1O)Oc1ccccc1` (some centres unmarked) [NB1013] had a mean IC30 over tumor cell lines in the series with Tumor Cells [1] of 59 µM. Moreover, the IC50 in the series on Det551 [11] and in the series with Normal Cells [10] was 570 µM in each case. The 30% effect concentration (IC30) in the series with H630R10 [9] was 92 µM; in the series with MCF7TDX it was 26 µM.

The compound `O=c1[nH]c(=O)n([C@H]2C[C@H](O)[C@@H](CO)O2)cc1C=CCl` [NB1020, 5-(2-chlorovinyl)-2'-deoxyuridine] displayed a mean IC30 over tumor cell lines in the series with Tumor Cells [1] (Homo sapiens, HT-1080) of 442 µM. The values for the IC30 with HT1080 (setting [15]), in the series on H630R10 [9] (Homo sapiens) and with MCF7TDX (Homo sapiens) were 1000 µM, 326 µM and 0.48 µM, respectively. The IC50 in the series with CCd18co [8] (Homo sapiens, CCD-18Co) was 1000 µM; with Normal Cells [10] (Homo sapiens, CCD-18Co), 1000 µM.

Compound `COC(=O)C(C)NP(=O)(OCC1OC(n2ccc(=O)[nH]c2=O)CC1O)Oc1ccccc1` (centres unmarked) [NB1025] yielded a mean IC30 over tumor cell lines with Tumor Cells [1] of 232 µM. For the same compound, the “activity (in words, summary of Tables 5 and 6)” value with Tumor Cells [1] was “active”. For the same compound, the IC30 is 454 µM in the series with HT1080 (120 hours drug exposure) and 49 µM with MCF7TDX. The IC50 in the series on CCd18co [8] and in the series on Normal Cells [10] was 378 µM each time.

These data come from patent publication EP1200455B1, “ENZYME CATALYZED THERAPEUTIC ACTIVATION” (Celmed Oncology (USA), Inc., priority 1999, dated 2001).
